Assay results from article PMC5655053, “Pharmacological Basis of CD101 Efficacy: Exposure Shape Matters” (Antimicrobial Agents and Chemotherapy, 2017).
“And” between values parts separate entries of the source, which are not always exact repeats. Identical values can stand only once. Like-named read-outs stand apart in the source and are kept apart here. Numbered stars: 1 amine (or outer) side, 2 acyl side, 3 side chain; on linkers, the order of the positions; unused ones are H or OH. Bridge positions count the residues as written; N and C are the ends. Square brackets hold non-standard residues; d marks the D form. Peptide text beside a SMILES is read from it. * marks the point of attachment. Orn(4R-OH,5R-OCH2CH2NMe3+) = C[N+](C)(C)CCO[C@@H](N[*:3])[C@H](O)C[C@H](N[*:1])C(=O)[*:2]; pTerphenylCO(4''-OnC5H11) = CCCCCOc1ccc(-c2ccc(-c3ccc(C(=O)*)cc3)cc2)cc1; hTyr(3S-OH,4S-OH) = N[C@H](C(=O)O)[C@H](O)[C@@H](O)c1ccc(O)cc1; Pro(3S-OH,4S-Me) = C[C@H]1CN[C@H](C(=O)O)[C@H]1O; Hyp = O=C(O)[C@@H]1C[C@@H](O)CN1

How the values were obtained:
[1] = Single-dose i.p. pharmacokinetic study in mice, plasma, four-compartment model; format: in vivo, ICR mice; details: for maximum plasma concentration: female ICR mice, at first sampling (1 h), LC-MS/MS
Method: A four-compartment model best described the disposition of this agent in murine plasma. […] The coefficient of determination (r^2) for the model-predicted concentrations versus observed concentrations was 0.97. […] All model parameters were estimated with excellent precision, as indicated by a standard error of the mean (SEM) of less than 20% for 7 of 8 of the model parameters.
Healthy female ICR mice weighing 20 to 24 g were administered a single dose of CD101 via intraperitoneal (i.p.) injection. Doses of 1, 4, and 16 mg/kg of body weight were studied, utilizing 3 animals per dose level. Whole-blood samples (one sample per animal) were collected at 1, 3, 6, 12, 24, 48, 72, and 96 h postdose. Plasma was collected by centrifugation, and samples were stored at −20°C or below. Samples were analyzed using liquid chromatography with tandem mass spectrometry detection and an AB-SCIEX API 4000 mass spectrometry system. The method used in the analysis was qualified as fit for the purpose: calibration standards were matrix matched, and, for each analytical batch, triplicate calibration standards were included at the beginning of the batch, approximately in the middle, and at the end. Following analysis, quantitation is carried out by a calibration curve comprising analyte/internal standard area ratio versus concentration. Calibration standards ranged from 0.5 mg/liter (lower limit of quantitation [LLOQ]) to 100 mg/liter. Analytical batch acceptance followed the general guidance criterion that standards/quality control should be within ±20% for accuracy (percent nominal concentration) and ≤20% for precision (percent coefficient of variation). For analysis, plasma samples were quenched with acetonitrile (4:1 acetonitrile/plasma ratio) containing diclofenac as the internal standard. Animals were maintained in accordance with the criteria of the American Association for Assessment and Accreditation of Laboratory Animal Care (AAALAC). The pharmacokinetic study was approved by the Animal Research Committee of the William S. Middleton Memorial Veterans Affairs Hospital and the University of Wisconsin.
(§1) Data collected from the pharmacokinetic study described above were used to develop a pharmacokinetic model describing the disposition of CD101 in mice in S-ADAPT ([21]). The developed pharmacokinetic model, along with the unbound CD101 fraction, was used to simulate free-drug concentration-time profiles for each dosing regimen administered in the front-loaded dose studies. Free-drug AUC0–168 values were calculated through numeric integration of CD101 free-drug concentration-time profiles. Relationships between changes in log10 CFU at 168 h and free-drug AUC0–168/MIC ratios were explored.

[2] = Observation for overt toxicity in mice of the front-loaded dose studies; format: in vivo, ICR mice; details: any of the mice evaluated
Method: (§2) Simulated free-drug plasma concentration-time profiles of the three fractionated CD101 2 mg/kg dosing regimens are shown in Fig. 4.
A neutropenic, murine, disseminated candidiasis model was used for the evaluation of the effects of the CD101 dosing regimens on efficacy. Male or female ICR mice (n = 5 per regimen and observation time) weighing 22 ± 2 g were rendered neutropenic by treatments using the injection of cyclophosphamide 4 days prior to infection (day −4) and 1 day prior to infection (day −1) at 150 and 100 mg/kg i.p., respectively. Neutropenia was sustained for the duration of the study with cyclophosphamide doses (100 mg/kg i.p.) administered every 48 h on days 1, 3, 5, and 7 after infection. Each animal was inoculated, using a lateral tail vein injection, with 1 × 10^3 CFU of Candida albicans (isolate R303). CD101 (or vehicle) was administered 24 h postinfection via i.p. injection. Mice were euthanized with CO2 at 168 h (7 days) following the start of treatment. Mice in the control group were euthanized 0, 24, and 48 h after administration of vehicle. Paired kidneys were aseptically harvested and homogenized, and serial dilutions were plated for colony counts to determine the fungal burden (measured in CFU per gram). Kidney counts were not determined in animals that expired prior to the scheduled sacrifice time. […]

[3] = cited from earlier work
Candida albicans R303 [4] = test: Broth microdilution susceptibility testing (CLSI M27-A3); format: cell-based; details: C. albicans R303, CLSI M27-A3, RPMI 1640, 35°C, read at 24 h, ~50% growth inhibition, modal value of three occasions
Method: CD101 was supplied by Cidara Therapeutics, Inc. (San Diego, CA). Stock solutions of CD101 were prepared in dimethyl sulfoxide (DMSO) for the susceptibility testing. The vehicle used for dosing in the in vivo studies was 10% DMSO–1% Tween 20–saline solution. The challenge isolate utilized in these studies was Candida albicans R303. Susceptibility testing was done in accordance with the Clinical and Laboratory Standards Institute (CLSI) M27-A3 methods, using RPMI 1640 medium, an initial inoculum of 0.5 × 10^3 to 2.5 × 10^3 CFU/ml, and incubation at 35°C ([20]). MIC plates were read following 24 h of incubation, and MIC values are reported as concentrations resulting in prominent (∼50%) growth inhibition. Susceptibility testing was performed on three separate occasions. Final results were expressed as modal values. Quality control was performed on each day of testing using CLSI-recommended reference strains (C. krusei ATCC 6258 and C. parapsilosis ATCC 22019).

[5] = test system: hepatocytes of Sprague-Dawdley rats; details: supratherapeutic (comparable) doses, 2-week repeated-dose study; cited from earlier work
Text: The echinocandin CD101 is a novel antifungal agent with activity against Aspergillus and Candida species, including azole- and echinocandin-resistant isolates ([1], [2]). This compound is a structural analog of anidulafungin but differs in certain beneficial ways with regard to toxicological and pharmacokinetic properties.

[6] = Simulated free-drug plasma concentration-time profiles of the fractionated regimens; parameters: species or system mouse; details: mice
Method: as §2, §1

Candida albicans R303 [7] = test: Front-loaded dose studies, neutropenic murine disseminated candidiasis model; format: in vivo, ICR mice
Method: Fungi in the no-treatment control group grew well and reached a density of greater than 1 × 10^6 CFU/g by 48 h. The magnitudes of net change in log10 CFU from the baseline at 168 h were similar regardless of the fractionation schedule within the CD101 0.7 mg/kg and 7 mg/kg dosing groups. […] In the 7 mg/kg dose group, the magnitude of net change was greater than 2 log10 CFU reduction from the baseline at 168 h, regardless of the fractionation schedule. Conversely, results within the CD101 2 mg/kg group differed across the fractionation schedules. […] However, when this dose was front-loaded (i.e., delivered entirely on day 1), there was a greater than 2 log10 CFU reduction from the baseline at 168 h.
A neutropenic, murine, disseminated candidiasis model was used for the evaluation of the effects of the CD101 dosing regimens on efficacy. Male or female ICR mice (n = 5 per regimen and observation time) weighing 22 ± 2 g were rendered neutropenic by treatments using the injection of cyclophosphamide 4 days prior to infection (day −4) and 1 day prior to infection (day −1) at 150 and 100 mg/kg i.p., respectively. Neutropenia was sustained for the duration of the study with cyclophosphamide doses (100 mg/kg i.p.) administered every 48 h on days 1, 3, 5, and 7 after infection. Each animal was inoculated, using a lateral tail vein injection, with 1 × 10^3 CFU of Candida albicans (isolate R303). CD101 (or vehicle) was administered 24 h postinfection via i.p. injection. Mice were euthanized with CO2 at 168 h (7 days) following the start of treatment. Mice in the control group were euthanized 0, 24, and 48 h after administration of vehicle. Paired kidneys were aseptically harvested and homogenized, and serial dilutions were plated for colony counts to determine the fungal burden (measured in CFU per gram). Kidney counts were not determined in animals that expired prior to the scheduled sacrifice time. The front-loaded dose studies was performed under animal biosafety level 2 conditions in an Association for Assessment and Accreditation of Laboratory Animal Care-accredited vivarium, at Eurofins Panlabs Taiwan, Ltd., with the oversight of veterinarians to ensure compliance with the Eurofins Panlabs Institutional Animal Care and Use Committee regulations and the humane treatment of laboratory animals.

[8] = four-compartment model, murine plasma, 1-16 mg/kg i.p.

## CCCCCOc1ccc(-c2ccc(-c3ccc(C(=O)N[C@H]4C[C@@H](O)[C@@H](OCC[N+](C)(C)C)NC(=O)[C@@H]5[C@@H](O)[C@@H](C)CN5C(=O)[C@H]([C@@H](C)O)NC(=O)[C@H]([C@H](O)[C@@H](O)c5ccc(O)cc5)NC(=O)[C@@H]5C[C@@H](O)CN5C(=O)[C@H]([C@@H](C)O)NC4=O)cc3)cc2)cc1 [CD101] ({pTerphenylCO(4''-OnC5H11)}-[Orn(4R-OH,5R-OCH2CH2NMe3+)]T[Hyp][hTyr(3S-OH,4S-OH)]T[Pro(3S-OH,4S-Me)]; lactam 1-C)
[1]; 1 mg/kg i.p. single dose
  maximum plasma concentration: 3.97 mg/L
[1]; 4 mg/kg i.p. single dose
  maximum plasma concentration: 13.6 mg/L
[1]; 16 mg/kg i.p. single dose
  maximum plasma concentration: 52.0 mg/L
[1]; 1 to 16 mg/kg i.p., mice
  pharmacokinetics over the studied dose range: linear pharmacokinetics
[1]; [8]
  Q2 (distributional clearance), final estimate: 0.0153 L/h/kg
  Q3 (distributional clearance), final estimate: 0.312 L/h/kg
  Q4 (distributional clearance), final estimate: 0.0723 L/h/kg
  V1 (central compartment volume), final estimate: 0.201 L/kg
  V2 (peripheral compartment volume), final estimate: 0.871 L/kg
  V3 (peripheral compartment volume), final estimate: 0.0341 L/kg
  V4 (peripheral compartment volume), final estimate: 0.165 L/kg
[1]; mouse, in vivo, ip, four-compartment model, murine plasma, 1-16 mg/kg i.p., read-out: CLt (total clearance), final estimate (converted)
  CL/F: 0.0104 L/h/kg
[2]
  overt signs of toxicities: No overt signs of toxicities
[3]; humans, healthy volunteers
  terminal half-life: ~133 h
Candida albicans R303 [4]
  modal MIC: 0.125 mg/L
[5]
  hepatocyte findings: no changes were observed
[6]; 2 mg/kg total dose
  free-drug AUC0-24 of single-dose regimen relative to daily regimen: 7 fold
[6]
  AUC0-168 of daily 1 mg/kg regimen relative to 2 mg/kg front-loaded regimen: approximately 3 fold
Candida albicans R303 [7]; total 2 mg/kg as single dose (2 mg/kg x 1), kidney burden, neutropenic ICR mice, n = 5
  log10 CFU reduction from the baseline at 168 h: > 2 log10 CFU and 2 log10 CFU
Candida albicans R303 [7]; total 2 mg/kg daily (0.29 mg/kg/day x 7), kidney burden, neutropenic ICR mice, n = 5
  log10 CFU increase from the baseline at 168 h: > 1 log10 CFU and 1 log10 CFU
Candida albicans R303 [7]; total 2 mg/kg twice weekly (1 mg/kg x 2), kidney burden, neutropenic ICR mice, n = 5
  net change in log10 CFU from the baseline at 168 h: net fungal stasis
Candida albicans R303 [7]; total 7 mg/kg i.p., regardless of the fractionation schedule
  log10 CFU reduction from the baseline at 168 h: greater than 2 log10 CFU

## anidulafungin [reference compound]
[5]
  hepatocyte findings: hepatocellular necrosis ranging from mild to moderate

## oritavancin [reference compound]
[3]
  terminal half-life: ~245 h
